According to patent publication US20220289732A1, “HETEROCYCLIC WDR5 INHIBITORS AS ANTI-CANCER COMPOUNDS” (NOVARTIS AG, priority 2019, published 2022):

Tests used:
[1] = molecular target: WDR5 (Homo sapiens, UniProt P61964); assay: WDR5 HTRF binding assay; details: read-out: (a) WDR5 HTRF Pep Val v.1[Inhibitor/IC50]Qualified AC50
Experimental: The compounds were serially diluted 3-fold in DMSO to obtain a total of twelve concentrations. Then the test compounds at each concentration (90 nL of each) were transferred by Mosquito in the white Proxiplate plus 384-well microplate (Perkin Elmer). The assay mixture (typical 9 μL) containing 6 nM WDR5 and 20 nM Biotin-MLL1 WIN peptide (3762-3773) in the assay buffer (25 mM Hepes, pH7.5, 0.05% Tween 20, 2 mM DTT, 100 mM NaCl, 0.1% BSA) were added to the wells. For counter assay, a 9 μL solution of 15 nM Biotin-PEG-His peptide was added into the wells. After 20 min incubation at rt, a 3 μL detection solution containing 14 μg/ml Phycolink Streptavidin Allophycocyanin (Prozyme), 2 nM Anti-His-Eu (PerkinElmer) in assay buffer was then added. After 1 hr incubation, the plate was read in the EnVision reader (PerkinElmer) using the HTRF protocol (The protocol set-up: Lance/Delfia dual enhancer mirror, excitation at 320 UV2 (TRF), emission at APC665, 2nd emission at EuropiμM 615). HTRF signals were normalized based on the reading coming from the positive (maximum signal control) and negative controls (minimum signal control) to give percentage of activities left. The data were then fit to a dose response equation using the program Helios (Novartis) to get the IC50 values. Helios is a Novartis in-house assay data analysis software using the methods described by Normolle, D. P., Statistics in Medicine, 12:2025-2042 (1993); Formenko, I. et al., Computer Methods and programs in Biomedicine, 82, 31-37 (2006); Sebaugh, J. L., Pharmaceutical Statistics, 10:128-134 (2011); Kelly, C. et al., Biometrics, 46(4):1071-1085 (1990); and Kahm, M, et al., Journal of Statistical Software, 33(7):(2010) (grofit: Fitting Biological Growth Curves with R, pages 1-21, available at http://www.jstatsoft.org/).

[2] = molecular target: wild type MLL1 four-member complex (MLL1-4C) (Homo sapiens, UniProt P61964); assay: MLL1 LC-MS assay (SAH production); assay type: biochemical; details: read-out: (b) MLL LCMS Peptide Val.v.1 Qualified AC50
Experimental: The compounds of the present disclosure were serially and separately diluted 3-fold in DMSO to obtain a total of eight or twelve concentrations. Then the test compounds at each concentration (120 nL of each) were transferred by Mosquito into white Proxiplate plus 384-well microplate (PerkinElmer). Solutions (6 μL) of 60 nM wild type MLL1 four-member complex (MLL1-4C) and 5 μM SAM in the reaction buffer (20 mM Tris-HCl, pH8.0, 0.01% Tween 20, 1 mM DTT, 10 mM MgCl2, 0.01% BSA) were added to the wells that were then incubated with the test compound for 20 min. A 6 μL solution of 20 μM of the peptide substrate H3K4me0 (histone H3[1-21]-Biotin) in the reaction buffer was added to initiate each reaction. The final components in the reaction solution include 30 nM MLL1-4C, 2.5 μM SAM, and 10 μM H3K4me0 with varying concentration of the compounds. A positive control consisted of 30 nM MLL1-4C, 2.5 μM SAM, and 10 μM substrate in the absence of the test compound, and a negative control consisted of 2.5 μM SAM, and 10 μM substrate only. Each reaction was incubated at rt for 120 min, then stopped by addition of 3 μL per of quench solution (2.5% TFA with 320 nM d4-SAH). The reaction mixture was centrifuged (Eppendorf centrifuge 5810, Rotor A-4-62) for 2 min at 2000 rmp. The SAH production from the enzymatic assays were monitored by LC-MS/MS on an API 4000 triple quadrupole mass spec with Turbolon Spray (Applied Biosystem) coupled with Prominenece UFLC (Shimazu). The level of SAH production were then normalized based on the values coming from the positive and negative controls to give percent enzyme activities. The data were then fit to a dose response equation using the program Helios (Novartis) to get the IC50 values of the test compound. Helios is a Novartis in-house assay data analysis software using the methods described by Normolle, D. P., Statistics in Medicine, 12:2025-2042 (1993); Formenko, I. et al., Computer Methods and programs in Biomedicine, 82, 31-37 (2006); Sebaugh, J. L., Pharmaceutical Statistics, 10:128-134 (2011); Kelly, C. et al., Biometrics, 46(4):1071-1085 (1990); and Kahm, M, et al., Journal of Statistical Software, 33(7):(2010) (grofit: Fitting Biological Growth Curves with R, pages 1-21, available at http://www.jstatsoft.org/).

[3] = test system: MV4-11 cells; assay: MV4-11 6-day cell growth CTG (CellTiter-Glo) assay; assay type: cell-based; details: Homo sapiens, MV4-11, 144 h, 6 days, read-out: (c) MLL/WDR5 cell proliferation assay//MLL/WDR5 proliferation MV4:11 Qualified AC50
Experimental: MV4-11 6-Day Cell Growth CTG (CellTiter-Glo) Assay
Acute myeloid leukemia cell MV4-11 (ATCC® CRL-9591™) was cultured with RPMI 1640 medium (Thermo Fisher Scientific, cat #11875) supplemented with 10% FBS (Thermo Fisher Scientific, cat #10099141) in humidified incubator at 37° C., 5% CO2. To assess the effect of WDR5 inhibitor on cell growth, the compound of the present invention was dissolved in DMSO and serially diluted at 1:3 for 12 points starting from 10 mM then 200 nL for the replicate of each dose per well was dispensed to Viewplate-384 Black (Perkin Elmer). Exponentially growing MV4-11 cells were seeded at the density of 300 cells per well in 40 μL to the plate, so the final compound working concentration starts from 50 μM. After 6 days, 40 μL CellTiter-Glo (Promega, cat #G7573) was added into the cell culture well and luminescence was read with Envision (Perkin Elmer) to determine the viable cells. The percentage inhibition was calculated against the samples treated with DMSO only and the data were used for dose response curve fitting in GraphPad Prism to get the IC50 of representative compound of present invention, which reflects the inhibition of WDR5 activity in the proliferation of MV4;11.

CNc1nccn1Cc1cc(CN(C)C2CC2)c2c(c1)C(=O)N([C@@H](C)c1cnc(F)c(OC)c1)CC2 [Example 15, (S)-5-((cyclopropyl(methyl)amino)methyl)-2-(1-(6-fluoro-5-methoxypyridin-3-yl)ethyl)-7-((2-(methylamino)-1H-imidazol-1-yl)methyl)-3,4-dihydroisoquinolin-1(2H)-one]
0.01 to 1 µM: IC50 [1] | AC50 [2] | AC50 [3]

CNc1nccn1Cc1cc(CN2CC[C@@H](F)C2)c2c(c1)C(=O)N([C@@H](C)c1cc(OC)c(F)cn1)CC2 [Example 16]
0.01 to 1 µM: IC50 [1] | AC50 [2] | AC50 [3]

CNc1nccn1Cc1cc(CN2CCC23COC3)c2c(c1)C(=O)N([C@@H](C)c1cc(OC)c(F)cn1)CC2 [Example 17, (S)-5((6-oxa-1-azaspiro+3.3+heptan-1-yl)methyl)-2-(1-(5-fluoro-4-methoxypyridin-2-yl)ethyl)-7-((2-(methylamino)-1H-imidazol-1-yl)methyl)-3,4-dihydroisoquinolin-1(2H)-one]
0.01 to 1 µM: IC50 [1] | AC50 [2] | AC50 [3]

CCOc1cc([C@H](C)N2CCc3c(CN(C)C4CC4)cc(Cn4ccnc4NC)cc3C2=O)ncc1C#N [Example 18, (S)-6-(1-(5-((cyclopropyl(methyl)amino)methyl)-7-((2-(methylamino)-1H-imidazol-1-yl)methyl)-1-oxo-3,4-dihydroisoquinolin-2(1H)-yl)ethyl)-4-ethoxynicotinonitrile]
0.01 to 1 µM: IC50 [1] | AC50 [2] | AC50 [3]

CCOc1cc([C@H](C)N2CCc3c(CN(C)C)cc(Cn4ccnc4NC)cc3C2=O)ncc1Cl [Example 20, (S)-2-(1-(5-chloro-4-ethoxypyridin-2-yl)ethyl)-5-((dimethylamino)methyl)-7-((2-(methylamino)-1H-imidazol-1-yl)methyl)-3,4-dihydroisoquinolin-1(2H)-one]
0.01 to 1 µM: IC50 [1] | AC50 [2] | AC50 [3]

CCOc1cc([C@H](C)N2CCc3c(CN(C)C4CC4)cc(Cn4ccnc4NC)cc3C2=O)ncc1F [Example 21, (S)-5-((cyclopropyl(methyl)amino)methyl)-2-(1-(4-ethoxy-5-fluoropyridin-2-yl)ethyl)-7-((2-(methylamino)-1H-imidazol-1-yl)methyl)-3,4-dihydroisoquinolin-1(2H)-one]
0.01 to 1 µM: IC50 [1] | AC50 [2] | AC50 [3]

CCOc1cc([C@H](C)N2CCc3c(CN(C)C4CC4)cc(Cn4ccnc4NC)cc3C2=O)ncc1Cl [Example 22, (S)-2-(1-(5-chloro-4-ethoxypyridin-2-yl)ethyl)-5-((cyclopropyl(methyl)amino)methyl)-7-((2-(methylamino)-1H-imidazol-1-yl)methyl)-3,4-dihydroisoquinolin-1(2H)-one]
0.01 to 1 µM: IC50 [1] | AC50 [2] | AC50 [3]

CCOc1cc([C@H](C)N2CCc3c(CN4CCOCC4)cc(Cn4ccnc4NC)cc3C2=O)ncc1Cl [Example 23, (S)-2-(1-(5-chloro-4-ethoxypyridin-2-yl)ethyl)-7-((2-(methylamino)-1H-imidazol-1-yl)methyl)-5-(morpholinomethyl)-3,4-dihydroisoquinolin-1(2H)-one]
0.01 to 1 µM: IC50 [1] | AC50 [2] | AC50 [3]

CCOc1cc(CN2CCc3c(CN(C)C)cc(Cn4ccnc4NC)cc3C2=O)cnc1C#N [Example 24, 5-((5-((dimethylamino)methyl)-7-((2-(methylamino)-1H-imidazol-1-yl)methyl)-1-oxo-3,4-dihydroisoquinolin-2(1H)-yl)methyl)-3-ethoxypicolinonitrile]
0.01 to 1 µM: IC50 [1] | AC50 [2] | AC50 [3]

CCOc1cc(CN2CCc3c(CN4CC(C)C4)cc(Cn4ccnc4NC)cc3C2=O)cnc1C#N [Example 25, 3-ethoxy-5-((7-((2-(methylamino)-1H-imidazol-1-yl)methyl)-5-((3-methylazetidin-1-yl)methyl)-1-oxo-3,4-dihydroisoquinolin-2(1H)-yl)methyl)picolinonitrile]
0.01 to 1 µM: IC50 [1] | AC50 [2] | AC50 [3]

CCOc1cc(CN2CCc3c(CN(C)C4CC4)cc(Cn4ccnc4NC)cc3C2=O)cnc1C#N [Example 26, 5-((5-((cyclopropyl(methyl)amino)methyl)-7-((2-(methylamino)-1H-imidazol-1-yl)methyl)-1-oxo-3,4-dihydroisoquinolin-2(1H)-yl)methyl)-3-ethoxypicolinonitrile]
0.01 to 1 µM: IC50 [1] | AC50 [2] | AC50 [3]

CCOc1cc([C@H](C)N2CCc3c(CN4CCOCC4)cc(Cn4ccnc4NC)cc3C2=O)ncc1F [Example 27, (S)-2-(1-(4-ethoxy-5-fluoropyridin-2-yl)ethyl)-7-((2-(methylamino)-1H-imidazol-1-yl)methyl)-5-(morpholinomethyl)-3,4-dihydroisoquinolin-1(2H)-one]
0.01 to 1 µM: IC50 [1] | AC50 [2] | AC50 [3]

CCOc1cc([C@H](C)N2CCc3c(CN4CC(F)C4)cc(Cn4ccnc4NC)cc3C2=O)ncc1C#N [Example 28, (S)-4-ethoxy-6-(1-(5-((3-fluoroazetidin-1-yl)methyl)-7-((2-(methylamino)-1H-imidazol-1-yl)methyl)-1-oxo-3,4-dihydroisoquinolin-2(1H)-yl)ethyl)nicotinonitrile]
0.01 to 1 µM: IC50 [1] | AC50 [2] | AC50 [3]

CNc1nccn1Cc1cc(CN(C)C)c2c(c1)C(=O)N([C@@H](C)c1cnc(F)c(OC)c1)CC2 [Example 29, (S)-5-((dimethylamino)methyl)-2-(1-(6-fluoro-5-methoxypyridin-3-yl)ethyl)-7-((2-(methylamino)-1H-imidazol-1-yl)methyl)-3,4-dihydroisoquinolin-1(2H)-one]
0.01 to 1 µM: IC50 [1] | AC50 [2] | AC50 [3]
